Data: patent publication US8927550B2, “Heterocyclic compounds as CCR1 receptor antagonists” (Boehringer Ingelheim International GmbH, priority 2009, dated 2015)

Biological target: T1, CCR1 (Homo sapiens, UniProt P32246)
T1 construct: host or cells: Non-adherent cells
T1 sequence (P32246 1-355): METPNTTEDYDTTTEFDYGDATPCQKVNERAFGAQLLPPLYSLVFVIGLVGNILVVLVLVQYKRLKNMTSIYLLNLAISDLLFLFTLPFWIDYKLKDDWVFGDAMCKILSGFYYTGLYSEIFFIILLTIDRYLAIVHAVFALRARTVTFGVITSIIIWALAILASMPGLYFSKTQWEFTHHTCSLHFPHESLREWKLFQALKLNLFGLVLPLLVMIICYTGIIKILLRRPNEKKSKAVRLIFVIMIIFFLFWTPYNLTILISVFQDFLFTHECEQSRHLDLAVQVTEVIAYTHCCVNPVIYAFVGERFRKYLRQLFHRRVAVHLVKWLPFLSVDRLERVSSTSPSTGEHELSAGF
Assay: Calcium flux in CCR1 transfected cells, Method B (Calcium 4 dye, HAMAMATSU FDSS6000), MIP-1alpha at EC80
Format: cell-based
Conditions: cells stably expressing recombinant CCR1 and G-alpha-16, 30 minutes at 37 C then 30 minutes at room temperature
Description: (§1) Compounds are assessed for the ability to block the interaction of CCR1 and MIP-1α in a functional cellular assay measuring calcium flux in CCR1 transfected cells.
Method B: Non-adherent cells purchased from Chemicon Corporation (HTS005C), stably expressing recombinant CCR1 and G-alpha-16 are grown in RPMI 1640 medium (Mediatech 10-080-CM) supplemented with 10% FBS, 0.4 mg/mL Geneticin and penicillin/streptomycin. On the day of the assay, the cells are loaded with Calcium 4 dye (Molecular Devices R7448) with Probenecid (Invitrogen P346400) at 8E5 cells/mL for 1 hour at room temperature. After 1 hour, they are seeded in a 384-well tissue culture-treated plate at a density of 20,000 cells/well. Appropriately diluted test compound is added to the well to achieve a top concentration of 3,000 nM (diluted 4-fold with 10 doses total). The final concentration of DMSO is 1%. The buffer is HBSS (Invitrogen 14025) with 20 mM HEPES at pH 7.4. The cells incubate 30 minutes at 37 C and then 30 minutes at room temperature. The plates are transferred to the HAMAMATSU FDSS6000 where MIP-1alpha in 1% BSA is added at the EC80 final concentration. All plates must be read within 4 hours of the start of dye-loading. Wells+/−MIP-1alpha containing diluted DMSO instead of compound serve as the controls. Data are analyzed using Activity Base software.

Row | IC50 [nM] | SMILES
1 | 4 | CS(=O)(=O)c1ccc(CNC(=O)c2cc(C#N)cc3c2ccn3-c2ccc(F)cc2)cn1 [6-Cyano-1-(4-fluorophenyl)-1H-indole-4-carboxylic acid (6-methanesulfonyl-pyridin-3-ylmethyl)-amide]
2 | 4 | CS(=O)(=O)Nc1ccc(CNC(=O)c2cc(C#N)cc3c2ccn3-c2ccc(F)cc2)cn1 [6-Cyano-1-(4-fluorophenyl)-1H-indole-4-carboxylic acid (6-methanesulfonylamino-pyridin-3-ylmethyl)-amide]
3 | 0.8 | CS(=O)(=O)c1cc(C2(NC(=O)c3cc(C#N)cc4c3ccn4-c3ccc(F)cc3)CC2)ccn1 [6-Cyano-1-(4-fluorophenyl)-1H-indole-4-carboxylic acid [1-(2-methanesulfonyl-pyridin-4-yl)-cyclopropyl]-amide]

Biological target: T1, CCR1
Assay: Calcium flux in CCR1 transfected cells, Method A (Fluo-4 NW dye, FLIPR TETRA), MIP-1 alpha at EC80
Format: cell-based
Conditions: cells stably expressing recombinant CCR1 and G-alpha-16, 1 hour at room temperature
Description: as §1
Method A: Non-adherent cells purchased from Chemicon Corporation (HTS005C), stably expressing recombinant CCR1 and G-alpha-16 are grown in RPMI 1640 medium (Mediatech 10-080-CM) supplemented with 10% heat-inactivated FBS, 0.4 mg/mL Geneticin and penicillin/streptomycin. On the day of the assay, the cells are transferred to a beaker and dye-loaded in bulk using a Fluo-4 NW Calcium Assay Kit with probenecid (Invitrogen F36205) at 0.8E6 cells/mL for 1 hour at room temperature. After 1 hour, they are seeded in a 384-well tissue culture-treated plate at a density of 20,000 cells/well. Appropriately diluted test compound is added to the well to achieve a top concentration of 3,000 nM (diluted 4-fold with 10 doses total). The final concentration of DMSO is 1%. The buffer is HBSS (Invitrogen 14025) with 20 mM HEPES at pH 7.4. The cells are allowed to incubate 1 hour in the dark at room temperature. The plates are transferred to the FLIPR TETRA where MIP-1 alpha in 1% BSA is added at the EC80 final concentration. Wells+/−MIP-1 alpha containing diluted DMSO instead of compound serve as the controls. Intracellular calcium flux is recorded on the FLIPR TETRA, using excitation at 470/495 nm and emission at 515/575 nm. Data are analyzed using Activity Base software.

Row | IC50 [nM] | SMILES
4 | 810 | O=C(NCc1cccc(C(F)(F)F)c1)c1cccn2c(-c3ccc(Cl)c(Cl)c3)ncc12 [3-(3,4-Dichlorophenyl)-imidazo[1,5-a]pyridine-8-carboxylic acid 3-trifluoromethyl-benzylamide]
5 | 305 | CS(=O)(=O)c1cccc(CNC(=O)c2cccn3c(-c4ccc(F)cc4)ncc23)c1 [3-(4-Fluorophenyl)-imidazo[1,5-a]pyridine-8-carboxylic acid 3-methanesulfonyl-benzylamide]
6 | 18 | O=C(NCc1cccc(C(F)(F)F)c1)c1cccn2c(-c3ccc(F)cc3)ncc12 [3-(4-Fluorophenyl)-imidazo[1,5-a]pyridine-8-carboxylic acid 3-trifluoromethyl-benzylamide]
7 | 11 | O=C(NCc1ccnc(Br)c1)c1cccn2c(-c3ccc(F)cc3)ncc12 [3-(4-Fluorophenyl)-imidazo[1,5-a]pyridine-8-carboxylic acid (2-bromopyridin-4-ylmethyl)-amide]
8 | 285 | CS(=O)(=O)c1cc(CNC(=O)c2cccn3c(-c4ccc(F)cc4)ncc23)ccn1 [3-(4-Fluorophenyl)-imidazo[1,5-a]pyridine-8-carboxylic acid (2-methanesulfonyl-pyridin-4-ylmethyl)-amide]
9 | 428 | O=C(NCc1ccc(Br)nc1)c1cccn2c(-c3ccc(F)cc3)ncc12 [3-(4-Fluorophenyl)-imidazo[1,5-a]pyridine-8-carboxylic acid (6-bromopyridin-3-ylmethyl)-amide]
10 | 568 | CS(=O)(=O)c1ccc(CNC(=O)c2cccn3c(-c4ccc(F)cc4)ncc23)cn1 [3-(4-Fluorophenyl)-imidazo[1,5-a]pyridine-8-carboxylic acid (6-methanesulfonyl-pyridin-3-ylmethyl)-amide]
11 | 7 | CCCC(NC(=O)c1cccn2c(-c3ccc(F)cc3)ncc12)c1ccc(S(C)(=O)=O)nc1 (centres unmarked) [3-(4-Fluorophenyl)-imidazo[1,5-a]pyridine-8-carboxylic acid [1-(6-methanesulfonyl-pyridin-3-yl)-butyl]-amide]
